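How tested: cells in 96-well plates exposed to compound for 48 hours at five concentrations. GI50: concentration for 50% inhibition of growth. The concentration for full growth arrest is given as TGI.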
Assays:
Assay in all cases: growth of human tumour cells (NCI), 48 h
MOLT-4 leukemia = tested on: MOLT-4 leukemia
UACC-257 melanoma = tested on: UACC-257 melanoma
RPMI-8226 leukemia = tested on: RPMI-8226 leukemia
SW-620 colon = tested on: SW-620 colon
T-47D breast = tested on: T-47D breast
NCI/ADR-RES ovarian = tested on: NCI/ADR-RES ovarian
HL-60(TB) leukemia = tested on: HL-60(TB) leukemia
HT29 colon = tested on: HT29 colon
786-0 renal = tested on: 786-0 renal
HCC-2998 colon = tested on: HCC-2998 colon
SK-OV-3 ovarian = tested on: SK-OV-3 ovarian
IGROV1 ovarian = tested on: IGROV1 ovarian
SNB-19 CNS = tested on: SNB-19 CNS
SF-268 CNS = tested on: SF-268 CNS
NCI-H226 lung = tested on: NCI-H226 lung
HS 578T breast = tested on: HS 578T breast
HCT-15 colon = tested on: HCT-15 colon
SNB-75 CNS = tested on: SNB-75 CNS
U251 CNS = tested on: U251 CNS
SR leukemia = tested on: SR leukemia
HOP-92 NSCLC = tested on: HOP-92 NSCLC
EKVX NSCLC = tested on: EKVX NSCLC
MDA-MB-435 = tested on: MDA-MB-435
SK-MEL-5 melanoma = tested on: SK-MEL-5 melanoma
MCF7 breast = tested on: MCF7 breast
COLO 205 colon = tested on: COLO 205 colon
LOX IMVI melanoma = tested on: LOX IMVI melanoma
OVCAR-8 ovarian = tested on: OVCAR-8 ovarian
CAKI-1 renal = tested on: CAKI-1 renal
NCI-H460 lung = tested on: NCI-H460 lung
BT-549 breast = tested on: BT-549 breast
M14 melanoma = tested on: M14 melanoma
A498 renal = tested on: A498 renal
OVCAR-5 ovarian = tested on: OVCAR-5 ovarian
HOP-62 NSCLC = tested on: HOP-62 NSCLC
K-562 leukemia = tested on: K-562 leukemia
ACHN renal = tested on: ACHN renal
NCI-H522 lung = tested on: NCI-H522 lung
SK-MEL-28 melanoma = tested on: SK-MEL-28 melanoma
OVCAR-4 ovarian = tested on: OVCAR-4 ovarian
UACC-62 melanoma = tested on: UACC-62 melanoma
PC-3 prostate = tested on: PC-3 prostate
KM12 colon = tested on: KM12 colon
SF-295 CNS = tested on: SF-295 CNS
SN12C renal = tested on: SN12C renal
SF-539 CNS = tested on: SF-539 CNS
CCRF-CEM leukemia = tested on: CCRF-CEM leukemia
MDA-MB-231 breast = tested on: MDA-MB-231 breast
UO-31 renal = tested on: UO-31 renal
DU-145 prostate = tested on: DU-145 prostate
RXF 393 renal = tested on: RXF 393 renal
MALME-3M melanoma = tested on: MALME-3M melanoma
HCT-116 colon = tested on: HCT-116 colon
OVCAR-3 ovarian = tested on: OVCAR-3 ovarian
TK-10 renal = tested on: TK-10 renal
NCI-H23 lung = tested on: NCI-H23 lung
A549 NSCLC = tested on: A549 NSCLC

For `COc1ccc(-c2nn(-c3ccc(NC(=O)c4ccc(Cl)c(Cl)c4)cc3)cc2-c2ccncc2)cc1Cl`, the GI50 (MOLT-4 leukemia) was 2.3 µM, the TGI (MOLT-4 leukemia) was over 50 µM and the GI50 (UACC-257 melanoma) was over 34.5 µM. It also gave a TGI (UACC-257 melanoma) of over 50 µM, a GI50 (RPMI-8226 leukemia) of 0.831 µM and a TGI (RPMI-8226 leukemia) of over 11.6 µM. For the same compound, the GI50 (SW-620 colon) was 2.67 µM, the TGI (SW-620 colon) was over 50 µM and the GI50 (T-47D breast) was over 50 µM. It also gave a TGI (T-47D breast) of over 50 µM, a GI50 (NCI/ADR-RES ovarian) of 4.12 µM and a TGI (NCI/ADR-RES ovarian) of over 50 µM. The GI50 (HL-60(TB) leukemia) was 2.76 µM, the TGI (HL-60(TB) leukemia) was over 50 µM and the GI50 (HT29 colon) was 1.21 µM. The TGI (HT29 colon) was 3.22 µM, the GI50 (786-0 renal) was 1.01 µM and the TGI (786-0 renal) was 2.53 µM. It also gave a GI50 (HCC-2998 colon) of 1.85 µM, a TGI (HCC-2998 colon) of over 50 µM and a GI50 (SK-OV-3 ovarian) of 4.29 µM. The TGI (SK-OV-3 ovarian) was over 50 µM, the GI50 (IGROV1 ovarian) was over 50 µM and the TGI (IGROV1 ovarian) was over 50 µM. The GI50 (SNB-19 CNS) was 4.2 µM, the TGI (SNB-19 CNS) was over 50 µM and the GI50 (SF-268 CNS) was 4.25 µM. The TGI (SF-268 CNS) was over 50 µM, the GI50 (NCI-H226 lung) was over 28.2 µM and the TGI (NCI-H226 lung) was over 50 µM. For the same compound, the GI50 (HS 578T breast) was 1.05 µM, the TGI (HS 578T breast) was 3.37 µM and the GI50 (HCT-15 colon) was 1.09 µM. The TGI (HCT-15 colon) was over 11 µM, the GI50 (SNB-75 CNS) was 1.26 µM and the TGI (SNB-75 CNS) was over 50 µM. The GI50 (U251 CNS) was 1.3 µM, the TGI (U251 CNS) was over 50 µM and the GI50 (SR leukemia) was 2.29 µM. It also gave a TGI (SR leukemia) of over 50 µM, a GI50 (HOP-92 NSCLC) of 7.65 µM and a TGI (HOP-92 NSCLC) of over 50 µM. It also gave a GI50 (EKVX NSCLC) of 3.25 µM, a TGI (EKVX NSCLC) of over 50 µM and a GI50 (MDA-MB-435) of 3.97 µM. For the same compound, the TGI (MDA-MB-435) was over 50 µM, the GI50 (SK-MEL-5 melanoma) was 1.91 µM and the TGI (SK-MEL-5 melanoma) was over 50 µM. The GI50 (MCF7 breast) was 2.97 µM, the TGI (MCF7 breast) was over 50 µM and the GI50 (COLO 205 colon) was 1.45 µM. For the same compound, the TGI (COLO 205 colon) was 3.8 µM, the GI50 (LOX IMVI melanoma) was 0.951 µM and the TGI (LOX IMVI melanoma) was 2.17 µM. It also gave a GI50 (OVCAR-8 ovarian) of over 25.8 µM, a TGI (OVCAR-8 ovarian) of over 50 µM and a GI50 (CAKI-1 renal) of 1.33 µM. For the same compound, the TGI (CAKI-1 renal) was 5.26 µM, the GI50 (NCI-H460 lung) was 2.02 µM and the TGI (NCI-H460 lung) was over 50 µM. It also gave a GI50 (BT-549 breast) of 3.23 µM, a TGI (BT-549 breast) of over 50 µM and a GI50 (M14 melanoma) of 1.67 µM. The TGI (M14 melanoma) was over 12.9 µM, the GI50 (A498 renal) was 1.26 µM and the TGI (A498 renal) was 4.52 µM. It also gave a GI50 (OVCAR-5 ovarian) of 3.24 µM, a TGI (OVCAR-5 ovarian) of over 50 µM and a GI50 (HOP-62 NSCLC) of 1.62 µM. The TGI (HOP-62 NSCLC) was 17 µM, the GI50 (K-562 leukemia) was 1.76 µM and the TGI (K-562 leukemia) was over 30.6 µM. For the same compound, the GI50 (ACHN renal) was over 13.2 µM, the TGI (ACHN renal) was over 50 µM and the TGI (NCI-H522 lung) was over 46.3 µM. For the same compound, the GI50 (SK-MEL-28 melanoma) was over 50 µM, the TGI (SK-MEL-28 melanoma) was over 50 µM and the GI50 (OVCAR-4 ovarian) was over 14.1 µM. The TGI (OVCAR-4 ovarian) was over 50 µM, the GI50 (UACC-62 melanoma) was 1.78 µM and the TGI (UACC-62 melanoma) was over 38.7 µM. The GI50 (PC-3 prostate) was 2.42 µM, the TGI (PC-3 prostate) was over 50 µM and the GI50 (KM12 colon) was 1.59 µM. It also gave a TGI (KM12 colon) of over 50 µM, a GI50 (SF-295 CNS) of 0.979 µM and a TGI (SF-295 CNS) of 2.67 µM. The GI50 (SN12C renal) was over 50 µM, the TGI (SN12C renal) was over 50 µM and the GI50 (SF-539 CNS) was 1.55 µM. For the same compound, the TGI (SF-539 CNS) was over 19 µM, the GI50 (CCRF-CEM leukemia) was 3.63 µM and the TGI (CCRF-CEM leukemia) was over 50 µM. For the same compound, the GI50 (MDA-MB-231 breast) was 0.993 µM, the TGI (MDA-MB-231 breast) was 2.96 µM and the GI50 (UO-31 renal) was 2.07 µM. The TGI (UO-31 renal) was over 50 µM, the GI50 (DU-145 prostate) was over 50 µM and the TGI (DU-145 prostate) was over 50 µM. The GI50 (RXF 393 renal) was 0.804 µM, the TGI (RXF 393 renal) was 1.75 µM and the GI50 (MALME-3M melanoma) was 5.88 µM. For the same compound, the TGI (MALME-3M melanoma) was over 50 µM, the GI50 (HCT-116 colon) was 2.5 µM and the TGI (HCT-116 colon) was over 50 µM. It also gave a GI50 (OVCAR-3 ovarian) of over 20.3 µM, a TGI (OVCAR-3 ovarian) of over 50 µM and a GI50 (TK-10 renal) of over 11.1 µM. For the same compound, the TGI (TK-10 renal) was over 50 µM, the GI50 (NCI-H23 lung) was over 12.7 µM and the TGI (NCI-H23 lung) was over 50 µM. For the same compound, the GI50 (A549 NSCLC) was over 12.4 µM and the TGI (A549 NSCLC) was over 50 µM.

— PubChem BioAssay (NCI)
